Data from patent US20130224236A1, “HSV-1 EPITOPES AND METHODS FOR USING SAME” (UNIVERSITY OF WASHINGTON, priority 2010, published 2013).

B1: UL21: HSV-1 protein UL21 (protein)
chain: MELSYATTMHYRDVVFYVTTDRNRAYFVCGGCVYSVGRPCASQPGEIAKFGLVVRGTGPDDRVVANYVRSELRQRGLQDVRPIGEDEVFLDSVCLLNPNVSSELDVINTNDVEVLDECLAEYCTSLRTSPGVLISGLRVRAQDRIIELFEHPTIVNVSSHFVYTPSPYVFALAQAHLPRLPSSLEALVSGLFDGIPAPRQPLDAHNPRTDVVITGRRAPRPIAGSGAGSGGAGAKRATVSEFVQVKHIDRVGPAGVSPAPPPNNTDSSSLVPGAQDSAPPGPTLRELWWVFYAADRALEEPRADSGLTREEVRAVRGFREQAWKLFGSAGAPRAFIGAALGLSPLQKLAVYYYIIHRERRLSPFPALVRLVGRYTQRHGLYVPRPDDPVLADAINGLFRDALAAGTTAEQLLMFDLLPPKDVPVGSDVQADSTALLRFIESQRLAVPGGVISPEHVAYLGAFLSVLYAGRGRMSAATHTARLTGVTSLVLAVGDVDRLSAFDRGAAGAASRTRAAGYLDVLLTVRLARSQHGQSV
modifications: human herpesvirus 1
notes: HSV-1 protein UL21
B2: UL39: HSV-1 UL39/ICP6/10, large subunit of ribonucleotide reductase (protein)
chain: MASRPAASSPVEARAPVGGQEAGGPSAATQGEAAGAPLAHGHHVYCQRVNGVMVLSDKTPGSASYRISDNNFVQCGSNCTMIIDGDVVRGRPQDPGAAASPAPFVAVTNIGAGSDGGTAVVAFGGTPRRSAGTSTGTQTADVPTEALGGPPPPPRFTLGGGCCSCRDTRRRSAVFGGEGDPVGPAEFVSDDRSSDSDSDDSEDTDSETLSHASSDVSGGATYDDALDSDSSSDDSLQIDGPVCRPWSNDTAPLDVCPGTPGPGADAGGPSAVDPHAPTPEAGAGLAADPAVARDDAEGLSDPRPRLGTGTAYPVPLELTPENAEAVARFLGDAVNREPALMLEYFCRCAREETKRVPPRTFGSPPRLTEDDFGLLNYALVEMQRLCLDVPPVPPNAYMPYYLREYVTRLVNGFKPLVSRSARLYRILGVLVHLRIRTREASFEEWLRSKEVALDFGLTERLREHEAQLVILAQALDHYDCLIHSTPHTLVERGLQSALKYEEFYLKRFGGHYMESVFQMYTRIAGFLACRATRGMRHIALGREGSWWEMFKFFFHRLYDHQIVPSTPAMLNLGTRNYYTSSCYLVNPQATTNKATLRAITSNVSAILARNGGIGLCVQAFNDSGPGTASVMPALKVLDSLVAAHNKESARPTGACVYLEPWHTDVRAVLRMKGVLAGEEAQRCDNIFSALWMPDLFFKRLIRHLDGEKNVTWTLFDRDTSMSLADFHGEEFEKLYQHLEVMGFGEQIPIQELAYGIVRSAATTGSPFVMFKDAVNRHYIYDTQGAAIAGSNLCTEIVHPASKRSSGVCNLGSVNLARCVSRQTFDFGRLRDAVQACVLMVNIMIDSTLQPTPQCTRGNDNLRSMGIGMQGLHTACLKLGLDLESAEFQDLNKHIAEVMLLSAMKTSNALCVRGARPFNHFKRSMYRAGRFHWERFPDARPRYEGEWEMLRQSMMKHGLRNSQFVALMPTAASAQISDVSEGFAPLFTNLFSKVTRDGETLRPNTLLLKELERTFSGKRLLEVMDSLDAKQWSVAQALPCLEPTHPLRRFKTAFDYDQKLLIDLCADRAPYVDHSQSMTLYVTEKADGTLPASTLVRLLVHAYKRGLKTGMYYCKVRKATNSGVFGGDDNIVCMSCAL
modifications: human herpesvirus 1
notes: HSV-1 UL39/ICP6/10, large subunit of ribonucleotide reductase
B3: UL13: HSV-1 protein UL13 (protein)
chain: MDESRRQRPAGHVAANLSPQGARQRSFKDWLASYVHSNPHGASGRPSGPSLQDAAVSRSSHGSRHRSGLRERLRAGLSRWRMSRSSHRRASPETPGTAAKLNRPPLRRSQAALTAPPSSPSHILTLTRIRKLCSPVFAINPALHYTTLEIPGARSFGGSGGYGDVQLIREHKLAVKTIKEKEWFAVELIATLLVGECVLRAGRTHNIRGFIAPLGFSLQQRQIVFPAYDMDLGKYIGQLASLRTTNPSVSTALHQCFTELARAVVFLNTTCGISHLDIKCANILVMLRSDAVSLRRAVLADFSLVTLNSNSTIARGQFCLQEPDLKSPRMFGMPTALTTANFHTLVGHGYNQPPELLVKYLNNERAEFTNHRLKHDVGLAVDLYALGQTLLELVVSVYVAPSLGVPVTRFPGYQYFNNQLSPDFALALLAYRCVLHPALFVNSAETNTHGLAYDVPEGIRRHLRNPKIRRAFTDRCINYQHTHKAILSSVALPPELKPLLVLVSRLCHTNPCARHALS
modifications: human herpesvirus 1
notes: HSV-1 protein UL13
B4: UL40: HSV-1 protein UL40 (protein)
chain: MDSAAPALSPALTALTDQSATADLAIQIPKCPDPERYFYTSQCPDINHLRSLSILNRWLETELVFVGDEEDVSKLSEGELSFYRFLFAFLSAADDLVTENLGGLSGLFEQKDILHYYVEQECIEVVHSRVYNIIQLVLFHNNDQARREYVAGTINHPAIRAKVDWLEARVRECASVPEKFILMILIEGIFFAASFAAIAYLRTNNLLRVTCQSNDLISRDEAVHTTASCYIYNNYLGGHAKPPPDRVYGLFRQAVEIEIGFIRSQAPTDSHILSPAALAAIENYVRFSADRLLGLIHMKPLFSAPPPDASFPLSLMSTDKHTNFFECRSTSYAGAVVNDL
modifications: human herpesvirus 1
notes: HSV-1 protein UL40
B5: US1/1.5: HSV-1 protein US1/ICP22 (protein)
chain: MADISPGAFAPCVKARRPALRSPPLGTRKRKRPSRPLSSESEVESDTALESEVESETASDSTESGDQDEAPRIGGRRAPRRLGGRFFLDMSAESTTGTETDASVSDDPDDTSDWSYDDIPPRPKRARVNLRLTSSPDRRDGVIFPKMGRVRSTRETQPRAPTPSAPSPNAMLRRSVRQAQRRSSARWTPDLGYMRQCINQLFRVLRVARDPHGSANRLRHLIRDCYLMGYCRARLAPRTWCRLLQVSGGTWGMHLRNTIREVEARFDATAEPVCKLPCLETRRYGPECDLSNLEIHLSATSDDEISDATDLEAAGSDHTLASQSDTEDAPSPVTLETPEPRGSLAVRLEDEFGEFDWTPQEGSQPWLSAVVADTSSVERPGPSDSGAGRAAEDRKCLDGCRKMRFSTACPYPCSDTFLRP
modifications: human herpesvirus 1
notes: HSV-1 protein US1/ICP22
B6: UL53: HSV-1 protein UL53/Glycoprotein K (protein)
chain: MLAVRSLQHLSTVVLITAYGLVLVWYTVFGASPLHRCIYAVRPTGTNNDTALVWMKMNQTLLFLGAPTHPPNGGWRNHAHICYANLIAGRVVPFQVPPDAMNRRIMNVHEAVNCLETLWYTRVRLVVVGWFLYLAFVALHQRRCMFGVVSPAHKMVAPATYLLNYAGRIVSSVFLQYPYTKITRLLCELSVQRQNLVQLFETDPVTFLYHRPAIGVIVGCELMLRFVAVGLIVGTAFISRGACAITYPLFLTITTWCFVSTIGLTELYCILRRGPAPKNADKAAAPGRSKGLSGVCGRCCSIILSGIAVRLCYIAVVAGVVLVALHYEQEIQRRLFDV
modifications: human herpesvirus 1
notes: HSV-1 protein UL53/Glycoprotein K

Tests used:
Type in all cases: cell-based, human
[1] = tested on: bulk polyclonal CD8 effector cells; experiment: ORFeome CD8 screen: IFN-γ ELISA after adding CD8 responders to Cos-7 aAPC co-transfected with HLA class I cDNA and HSV-1 ORF; conditions: for CD8 IFN-γ responses to HSV-1 polypeptide (ORF level): amongst the 7 participants, HLA A, B, C screens; for HLA A*0101-bearing donors with CD8 T cells recognizing the ORF: primary co-transfection screens with shared HLA cDNA; for number of distinct restricting HLA alleles: CD8 recognition; for number of persons with CD8 recognition of the ORF: of 7 persons; for number of HLA-level screens in which the ORF was recognized: of 39 screens; for CD8 reactivity restricted by HLA A*0101: participant 1
[2] = tested on: Bulk-expanded HSV-1-reactive CD4 T-cell lines; experiment: ORFeome CD4 screen: 3H thymidine proliferation to recombinant HSV-1 proteins; conditions: of 11 persons
[3] = tested on: CD4+ clone 9447.28 specific for HSV-1 VP22 AA 199-211; experiment: 3H thymidine proliferation check of expressed VP22 with a CD4 T-cell clone; conditions: pEXP203 in vitro expressed protein
Method: For expression, pEXP203 plasmids were prepared from a 3 ml ampicillin culture of transformed E. coli using a silica method (Qiagen) and mass determined by spectrophotometry. Protein expression used 50 μl volumes of the Expressionway E. coli system (Invitrogen). To check expression, 1 μl of reaction product was spotted onto nitrocellulose membranes (Whatman, Piscataway, N.J.), air-dried, blocked with 1% blocking reagent (Roche) diluted in TBS (50 mM Tris, 150 mM NaCl, pH 7.5), probed with anti-6-His mAb (Roche) diluted 1:500 in TBS-0.1% Tween −20 (TBS-T) (Roche), washed with TBS-T, incubated with horseradish peroxidase-conjugated anti-mouse IgG (Promega) diluted 1:2500 in TBS-T, washed with TBS-T, and developed with TMB substrate (Promega). Proteins failing to display a spot indicating anti-6-His binding were re-synthesized. For HSV-1 protein VP22 (gene UL49), expression was checked by triplicate, 3-day ^3H thymidine proliferation assay using cornea-derived CD4+ clone 9447.28 specific for HSV-1 VP22 AA 199-211 (18) as responders (2×10^4/well), autologous 3,300 rad γ-irradiated PBMC as APC (10^5/well), and HSV-1 VP22 or controls expressed in the pEXP203 system.
We expressed proteins covering the large majority of the HSV-1 proteome using an in vitro bacterial expression system.

| Molecule | CD8 IFN-γ responses to HSV-1 polypeptide (ORF level) [1] | other results |
| --- | --- | --- |
| RL2/ICP0: HSV-1 protein RL2/ICP0 | elicit CD8 IFN-γ responses | CD8 IFN-γ responses to HSV-1 polypeptide (ORF level) ([1]; listed as ICP0): detected |
| RS1/ICP4: HSV-1 protein RS1/ICP4 | elicit CD8 IFN-γ responses | CD8 IFN-γ responses to HSV-1 polypeptide (ORF level) ([1]; listed as ICP4): detected |
| UL1: HSV-1 protein UL1/Glycoprotein L | elicit CD8 IFN-γ responses | HLA A*0101-bearing donors with CD8 T cells recognizing the ORF [1]: each HLA A*0101-bearing donor |
| UL25: HSV-1 protein UL25 | elicit CD8 IFN-γ responses |  |
| UL29: HSV-1 protein UL29/ICP8 | elicit CD8 IFN-γ responses |  |
| UL31: HSV-1 protein UL31 | elicit CD8 IFN-γ responses |  |
| UL37: HSV-1 protein UL37/ICP32 | elicit CD8 IFN-γ responses |  |
| UL41: HSV-1 protein UL41/vhs | elicit CD8 IFN-γ responses |  |
| UL46: HSV-1 tegument protein VP11/12 encoded by gene UL46 | elicit CD8 IFN-γ responses | number of distinct restricting HLA alleles [1]: 7; number of persons with CD8 recognition of the ORF [1]: 5; number of HLA-level screens in which the ORF was recognized [1]: 10; number of persons with CD4 recognition of the protein [2]: 11 |
| UL47: HSV-1 protein UL47/VP13/14 | elicit CD8 IFN-γ responses |  |
| UL48: HSV-1 protein UL48/VP16/ICP25 | elicit CD8 IFN-γ responses | CD8 reactivity restricted by HLA A*0101 [1]: strong reactivity; HLA A*0101-bearing donors with CD8 T cells recognizing the ORF [1]: each HLA A*0101-bearing donor |
| UL49: HSV-1 protein UL49/VP22 | elicit CD8 IFN-γ responses | responses of VP22-specific CD4 T-cell clone to expressed protein [3]: strong, specific responses |
| UL54: HSV-1 protein UL54 ICP27 | elicit CD8 IFN-γ responses |  |
| US7: HSV-1 protein US7/Glycoprotein I | elicit CD8 IFN-γ responses |  |
| B1 | elicit CD8 IFN-γ responses |  |
| B2 | elicit CD8 IFN-γ responses | number of distinct restricting HLA alleles [1]: 7; number of persons with CD8 recognition of the ORF [1]: 6; number of HLA-level screens in which the ORF was recognized [1]: 11; CD8 reactivity restricted by HLA A*0101 [1]: strong reactivity |
| B3 | elicit CD8 IFN-γ responses |  |
| B4 | elicit CD8 IFN-γ responses |  |
| B5 | elicit CD8 IFN-γ responses | CD8 IFN-γ responses to HSV-1 polypeptide (ORF level) ([1]; listed as ICP22): detected |
| B6 | elicit CD8 IFN-γ responses |  |
